Measurements as given in US20090082329A1 (AVENTIS PHARMA S.A., priority 2006, published 2009).
Read-outs that look alike come from different tables or passages of the source.

Legend:
[1] = molecular target: T1, human cytoplasmic domain of IGF-1R (Homo sapiens, UniProt P08069); experiment: Kinase IGF-1R test: inhibition of autophosphorylation of the enzyme (HTRF); format: biochemical; settings: ATP 120 μM
T1 construct: The human cytoplasmic domain of IGF-1R was cloned by fusion with glutathione S-transferase (GST); made in house; host or cells: SF21 insect cells (baculovirus, pFastBac-GST)
Method: A) Experimental Protocol for the Kinase IGF-1R Test:
The inhibitory activity of the compounds on IGF1R is determined by measuring the inhibition of autophosphorylation of the enzyme using a time-resolved fluorescence test (HTRF). The human cytoplasmic domain of IGF-1R was cloned by fusion with glutathione S-transferase (GST) in the baculovirus expression vector pFastBac-GST. The protein is expressed in the SF21 cells and purified to about 80% homogeneity. For the enzymatic test, the test compound at 10 mM dissolved in DMSO is diluted in ⅓ steps in a 50 mM Hepes, pH 7.5, 5 mM MnCl2, 50 mM NaCl, 3% Glycerol, 0.025% Tween 20 buffer. To measure the inhibition, the successive dilutions of the compound are preincubated for 30 minutes and 90 minutes in the presence of 5 nM of enzyme, the final DMSO concentration not exceeding 1%. The enzymatic reaction is initiated to have a final ATP concentration of 120 μM, and is stopped after 5 minutes by addition of 100 mM Hepes, pH 7.0 buffer containing 0.4 M of potassium fluoride, 133 mM EDTA, 0.1% BSA, the XL665-labelled antibody anti-GST and the anti-phosphotyrosine antibody conjugated to europium cryptate Eu—K (Cis-Bio Int.). The characteristics of the two fluorophores, XL-665 and Eu—K, are available in G. Mathis et al., Anticancer Research, 1997, 17, pages 3011-3014. The energy transfer between the excited europium cryptate to the acceptor XL665 is proportional to the degree of autophosphorylation of IGF-1R. The specific long-lasting signal of XL-665 is measured in a GENios Pro TECAN plate counter. The inhibition of autophosphorylation of IGF-1R at time 30 minutes and 90 minutes with the test compounds of the invention is calculated relative to a 1% in DMSO control, whose activity is measured in the absence of compound. The curve representing the percentage of inhibition as a function of the log of the concentration is established to determine the concentration corresponding to 50% inhibition (IC50),

MEF-IGF1R cells = experiment: Proliferation/viability of MEF-IGF1R (Thymidine [14C] incorporation); format: cell-based; settings: rhIGF1 100 ng/mL, incubation 72 hours, read-out: Test C IC50
Method: C) Measurement of the Proliferation/Viability of MEF-IGF1R
Cell culture: the MEF-IGF1R cells (stable clone of cells transfected with the receptor hIGF-1R) are cultured at 37° C. under 5% CO2 in EMEM medium containing 10% FCS.
Test procedure: the cells are seeded at 5000 cells per well in 96-well Cytostar plates (Amersham) with 0.2 mL of EMEM culture medium at 37° C. for 18 hours. The cells are then washed twice with EMEM medium and left to culture without serum for 24 hours. The compounds are then added at various concentrations in the presence of rhIGF1 (100 ng/mL) and 0.1 μCi of Thymidine [^14C] (specific activity ˜50 mCi/mmol) to give 0.2 mL of volume per well. After incubation for 72 hours in the presence of the compound, at 37° C. under 5% CO2, the incorporation of Thymidine [^14C] is measured by counting the radioactivity on a Microbeta trilux counter (Perkin-Elmer). The IC50 is determined from 10 increasing concentrations of the compound.
(§1) (i) The tests are performed in duplicate and the mean of the two tests is calculated.
(§2) (ii) The value of the signal of the maximum response is calculated from the positive control: cells stimulated with IGF1 without compound.
(§3) (iii) Value of the signal of the minimum response is calculated from the negative control: cells not stimulated with IGF1 without compound.
(§4) (iv) By using these values as maximum (100%) and minimum (0%), respectively, the data were normalized so as to give a percentage of the maximum response.
(§5) (v) A curve of dose response is plotted and the IC50 (the concentration of which the compound induces a 50% decrease in the signal) of the compound is calculated by non-linear regression analysis.

IGF-1R in MCF7 cells = IGF-1R in MCF7 cells (Homo sapiens, UniProt P08069); experiment: Autophosphorylation of IGF-1R in MCF7 cells after stimulation with IGF-1 (ELISA); format: cell-based; design: endogenous in cells; host or cells: MCF-7 cells; settings: MCF-7 cells, compound added one hour before stimulation with IGF1; read-out: Test B IC50
Method: B) Measurement of the Autophosphorylation of IGF-1R in MCF7 Cells after Stimulation with IGF-1
Cell Culturing and Execution of the Test:
The autophosphorylation of IGF1R in the IGF1-induced cells is evaluated by means of an ELISA technique (Enzyme Linked ImmunoSorbent Assay). The MCF-7 are seeded at 60 000 cells per well in 6-well plates and incubated at 37° C., 5% CO2 in medium containing 10% serum. After one night in 10% serum, the cells are deprived of serum for 24 hours. The compounds are added to the medium one hour before stimulation with IGF1. After 10 minutes of stimulation with IGF1, the cells are lysed with a buffer (Hepes 50 mM pH 7.6, Triton X100 1%, orthovanadate 2 mM, protease inhibitor cocktail). The cell lysates are incubated on a 96-well plate precoated with an anti-IGF1R antibody, followed by incubation with an anti-phosphotyrosine antibody coupled to the enzyme peroxidase. The level of peroxidase activity (measured by OD with a luminescent substrate) reflects the phosphorylation status of the receptor.
as §1, §2, §3, §4, §5

[2] = preincubation 30 minutes with 5 nM enzyme, read-out: Test A 30′ IC50
[3] = preincubation 90 minutes with 5 nM enzyme, read-out: Test A 90′ IC50

Chain of IGF-1R in MCF7 cells (P08069 31-1367): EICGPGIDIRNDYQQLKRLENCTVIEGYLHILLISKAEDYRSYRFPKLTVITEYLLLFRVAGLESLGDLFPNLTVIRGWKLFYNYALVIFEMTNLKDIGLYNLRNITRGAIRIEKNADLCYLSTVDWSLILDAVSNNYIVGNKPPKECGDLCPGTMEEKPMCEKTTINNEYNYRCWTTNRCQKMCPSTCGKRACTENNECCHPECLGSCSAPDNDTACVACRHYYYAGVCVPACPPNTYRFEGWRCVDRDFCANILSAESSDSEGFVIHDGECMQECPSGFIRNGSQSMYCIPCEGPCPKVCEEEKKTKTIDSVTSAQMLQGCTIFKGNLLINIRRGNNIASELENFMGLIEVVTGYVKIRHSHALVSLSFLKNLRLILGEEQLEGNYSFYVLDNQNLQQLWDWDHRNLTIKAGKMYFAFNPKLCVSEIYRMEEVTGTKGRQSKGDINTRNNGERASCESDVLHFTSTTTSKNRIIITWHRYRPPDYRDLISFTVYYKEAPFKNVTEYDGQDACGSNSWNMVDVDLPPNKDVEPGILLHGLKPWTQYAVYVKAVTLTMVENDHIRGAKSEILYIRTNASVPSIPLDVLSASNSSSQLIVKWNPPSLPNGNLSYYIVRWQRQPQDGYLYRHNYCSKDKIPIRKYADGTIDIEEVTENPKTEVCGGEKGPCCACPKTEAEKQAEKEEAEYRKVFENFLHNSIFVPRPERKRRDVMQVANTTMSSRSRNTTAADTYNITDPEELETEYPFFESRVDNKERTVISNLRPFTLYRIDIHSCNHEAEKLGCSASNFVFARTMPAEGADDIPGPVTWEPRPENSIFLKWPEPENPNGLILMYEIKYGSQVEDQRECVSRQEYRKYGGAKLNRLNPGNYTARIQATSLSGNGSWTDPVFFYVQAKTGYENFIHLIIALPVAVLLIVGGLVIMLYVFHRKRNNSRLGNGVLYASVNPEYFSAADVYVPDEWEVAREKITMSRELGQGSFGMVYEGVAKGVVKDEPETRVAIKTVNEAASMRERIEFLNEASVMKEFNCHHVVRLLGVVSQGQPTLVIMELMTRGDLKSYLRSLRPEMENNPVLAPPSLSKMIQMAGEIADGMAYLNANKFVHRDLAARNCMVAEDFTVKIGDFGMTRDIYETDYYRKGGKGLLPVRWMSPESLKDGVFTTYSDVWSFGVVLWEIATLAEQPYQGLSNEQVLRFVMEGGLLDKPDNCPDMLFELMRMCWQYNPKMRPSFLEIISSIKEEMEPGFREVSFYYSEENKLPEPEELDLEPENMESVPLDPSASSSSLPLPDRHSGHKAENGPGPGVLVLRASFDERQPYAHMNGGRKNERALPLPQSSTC
T1 sequence (P08069 960-1367 limits assumed): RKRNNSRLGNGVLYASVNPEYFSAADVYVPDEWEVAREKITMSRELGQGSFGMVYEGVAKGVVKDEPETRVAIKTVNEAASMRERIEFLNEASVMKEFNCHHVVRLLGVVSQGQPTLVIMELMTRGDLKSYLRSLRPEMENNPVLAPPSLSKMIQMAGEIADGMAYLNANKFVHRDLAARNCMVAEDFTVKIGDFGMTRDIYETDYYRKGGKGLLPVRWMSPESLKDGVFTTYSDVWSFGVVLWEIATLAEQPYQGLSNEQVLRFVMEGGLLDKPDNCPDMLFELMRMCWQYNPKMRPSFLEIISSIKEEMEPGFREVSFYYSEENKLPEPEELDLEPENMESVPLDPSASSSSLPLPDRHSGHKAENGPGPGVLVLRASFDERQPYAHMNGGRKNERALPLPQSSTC

| SMILES | IC50 [1, 2] [nM] | IC50 [1, 3] [nM] | IC50 (MEF-IGF1R cells) [nM] | IC50 (IGF-1R in MCF7 cells) [nM] |
| --- | --- | --- | --- | --- |
| CC1(C)C(=O)N(c2ccc(SC(F)(F)F)cc2)C(=O)N1Cc1ccnc(NC(=O)N2CCC2)c1 [Example 27, N-{4-[(5,5-dimethyl-2,4-dioxo-3-{4-[(trifluoro-methyl)thio]phenyl}imidazolidin-1-yl)methyl]pyridin-2-yl}azetidine-1-carboxamide] | 10 to 100 | 10 to 100 | < 10 | 10 to 100 |
| CC1(C)C(=O)N(c2ccc(SC(F)(F)F)cc2)C(=O)N1Cc1ccnc(NC(=O)N2CCCC2)c1 [Example 28, N-{4-[(5,5-dimethyl-2,4-dioxo-3-{4-[(trifluoromethyl)thio]phenyl}imidazolidin-1-yl)methyl]pyridin-2-yl}pyrrolidine-1-carboxamide] | 10 to 100 | 10 to 100 | 10 to 100 | < 10 |
| CC1(C)C(=O)N(c2ccc(SC(F)(F)F)cc2)C(=O)N1Cc1ccnc(NC(=O)N2CCOCC2)c1 [Example 29, N-{4-[(5,5-dimethyl-2,4-dioxo-3-{4-[(trifluoro-methyl)thio]phenyl}imidazolidin-1-yl)methyl]pyridin-2-yl}morpholine-4-carboxamide] | 10 to 100 | 10 to 100 | 10 to 100 | 10 to 100 |
| CN1CCN(C(=O)Nc2cc(CN3C(=O)N(c4ccc(SC(F)(F)F)cc4)C(=O)C3(C)C)ccn2)CC1 [Example 30, N-{4-[(5,5-dimethyl-2,4-dioxo-3-{4-[(trifluoro-methyl)thio]phenyl}imidazolidin-1-yl)methyl]pyridin-2-yl}-4-methylpiperazine-1-carboxamide] | 10 to 100 | < 10 | > 100 | 10 to 100 |
| CCN(C)C(=O)Nc1cc(CN2C(=O)N(c3ccc(SC(F)(F)F)cc3)C(=O)C2(C)C)ccn1 [Example 34, 3-{4-[(5,5-dimethyl-2,4-dioxo-3-{4-[(trifluoro-methyl)thio]phenyl}imidazolidin-1-yl)methyl]pyridin-2-yl}-1-ethyl-1-methylurea] | 10 to 100 | 10 to 100 | 10 to 100 | 10 to 100 |
| CCCN(C)C(=O)Nc1cc(CN2C(=O)N(c3ccc(SC(F)(F)F)cc3)C(=O)C2(C)C)ccn1 [Example 35, 3-{4-[(5,5-dimethyl-2,4-dioxo-3-{4-[(trifluoromethyl)thio]phenyl}imidazolidin-1-yl)methyl]pyridin-2-yl}-1-methyl-1-propylurea] | 10 to 100 | 10 to 100 | 10 to 100 | 10 to 100 |
| CCCCN(C)C(=O)Nc1cc(CN2C(=O)N(c3ccc(SC(F)(F)F)cc3)C(=O)C2(C)C)ccn1 [Example 36, 1-butyl-3-{4-[(5,5-dimethyl-2,4-dioxo-3-{4-[(trifluoromethyl)thio]phenyl}imidazolidin-1-yl)methyl]pyridin-2-yl}-1-methylurea] | 10 to 100 | 10 to 100 | 10 to 100 | 10 to 100 |
| CN(C)CCCNC(=O)Nc1cc(CN2C(=O)N(c3ccc(SC(F)(F)F)cc3)C(=O)C2(C)C)ccn1 [Example 39, 1-[3-(dimethylamino)propyl]-3-{4-[(5,5-dimethyl-2,4-dioxo-3-{4-[(trifluoromethyl)thio]phenyl}imidazolidin-1-yl)methyl]pyridin-2-yl}urea] | 10 to 100 | 10 to 100 | > 100 | > 100 |
| CC1(C)C(=O)N(c2ccc(SC(F)(F)F)cc2)C(=O)N1Cc1ccnc(Nc2cccc(F)c2)c1 [Example 40C, 1-({2-[(3-fluorophenyl)amino]pyridin-4-yl}methyl)-5,5-dimethyl-3-{4-[(trifluoromethyl)thio]phenyl}imidazolidine-2,4-dione] | > 100 | 10 to 100 | 10 to 100 | 10 to 100 |
| CC1(C)C(=O)N(c2ccc(SC(F)(F)F)cc2)C(=O)N1Cc1ccnc(NC2CC2)c1 [Example 40D, 1-{[2-(cyclopropylamino)pyridin-4-yl]methyl}-5,5-dimethyl-3-{4-[(trifluoromethyl)thio]phenyl}imidazolidine-2,4-dione] | 10 to 100 | 10 to 100 | > 100 | 10 to 100 |
